The source of these data is ChEMBL document CHEMBL1201862, “PubChem BioAssay data set” (2004).

Structures are written as SMILES.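 Cultured in 96-well plates, cells were exposed to test compound for 48 hours across five concentrations. The concentration for 50% growth inhibition is given as GI50.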 Calls of active or inactive are those of the source. Rule as the data show it: active = GI50 up to about 1.1 µM and inactive = higher.

Among the test systems are UACC-257; NCI-H23; SNB-19; NCI-H522; EKVX; HCT-116; SF-268; RXF 393; HCT-15; TK-10; NCI/ADR-RES; DU-145; IGROV-1; OVCAR-3; SK-OV-3; RPMI-8226; NCI-H460; A498; BT-549.
Holding throughout (assay): growth of human tumour cells (NCI), 48 h

Regarding `COC1=C2C[C@@H](C)C[C@@H](OC)[C@@H](O)[C@H](C)/C=C(\C)[C@@H](OC(N)=O)[C@H](OC)/C=C\C=C(/C)C(=O)NC(=CC1=O)C2=O`, the GI50 is 0.0769 µM (active) with UACC-257; 0.0309 µM (active) with NCI-H23; 10.2 µM (inactive) with SNB-19; 0.036 µM (active) in the assay with NCI-H522; 6.56 µM (inactive) with EKVX; 0.0419 µM (active) with HCT-116. For the same compound, the GI50 is 1.01 µM (active) in the assay with SF-268; 0.0818 µM (active) in the assay on RXF 393; 0.265 µM with HCT-15; 0.118 µM (active) in the assay on TK-10; 10.1 µM (inactive) in the assay with NCI/ADR-RES; 0.106 µM (active) in the assay on DU-145. For the same compound, the GI50 was 0.29 µM (active) in the assay with IGROV-1; 0.213 µM (active) in the assay with OVCAR-3; 1.04 µM (active) in the assay on SK-OV-3; 0.138 µM (active) with RPMI-8226; 1.49 µM (inactive) in the assay with NCI-H460.

As to `CC(C)(C)NC(NC(C)(C)C)=C(/C=C(/Cl)[N+](=O)[O-])[N+](=O)[O-]`, the GI50 in the assay on UACC-257 is 94 µM (inactive); in the assay with NCI-H23, 42.7 µM (inactive); in the assay with SNB-19, > 100 µM (inactive); in the assay on NCI-H522, > 100 µM (inactive); in the assay with EKVX it was > 100 µM (inactive); with HCT-116, 34.3 µM (inactive). For the same compound, the GI50 is 74.6 µM (inactive) with SF-268; > 100 µM (inactive) in the assay with RXF 393; > 100 µM (inactive) in the assay on A498; 73.1 µM in the assay with HCT-15; > 100 µM (inactive) with TK-10; > 100 µM (inactive) in the assay with DU-145. Further, the GI50 with IGROV-1 is 51.8 µM (inactive); with OVCAR-3, 20 µM (inactive); with SK-OV-3, > 100 µM (inactive); in the assay on RPMI-8226, 67.3 µM (inactive); with NCI-H460 it was 52.2 µM (inactive).

Consider `CC(=O)/N=C1\N/C(=C\c2ccc(Cl)cc2)C(=O)N1/C=C1\C(=O)Oc2ccccc2C1=O`, for which the GI50 in the assay with UACC-257 was > 100 µM (inactive); in the assay with NCI-H23, > 100 µM (inactive); in the assay on SNB-19, > 100 µM (inactive); with NCI-H522, 78.9 µM (inactive); with EKVX it was 13.3 µM (inactive); with HCT-116, > 100 µM (inactive). The GI50 with SF-268 is 45.9 µM (inactive); with RXF 393 it was > 100 µM (inactive); in the assay with A498 it was 10.8 µM (inactive); in the assay with HCT-15 it was 85.1 µM; in the assay on NCI/ADR-RES, > 100 µM (inactive); in the assay with DU-145, > 100 µM (inactive). In addition, the GI50 is > 100 µM (inactive) in the assay with IGROV-1; 77.8 µM (inactive) in the assay on OVCAR-3; > 100 µM (inactive) in the assay with SK-OV-3; > 100 µM (inactive) in the assay with RPMI-8226; > 100 µM (inactive) with NCI-H460.

For `O=C1/C(=c2\s/c(=C\c3ccccc3)c(=O)n2-c2ccccc2)SC(=S)N1c1ccccc1`, the GI50 with UACC-257 is 72.9 µM (inactive); in the assay on NCI-H23, 76.7 µM (inactive); in the assay with SNB-19, 46.1 µM (inactive); with EKVX, 35.6 µM (inactive); in the assay on HCT-116, 58.9 µM (inactive); in the assay on SF-268, 41.8 µM (inactive). For the same compound, the GI50 in the assay on RXF 393 is 34 µM (inactive); with A498, 39.2 µM (inactive); in the assay with HCT-15, > 100 µM; in the assay with TK-10 it was 28.9 µM (inactive); with NCI/ADR-RES it was 28 µM (inactive); in the assay on DU-145, 37.2 µM (inactive). The GI50 is 25 µM (inactive) with IGROV-1; 27.2 µM (inactive) with OVCAR-3; 21.9 µM (inactive) in the assay with SK-OV-3; 56.8 µM (inactive) with RPMI-8226; 41 µM (inactive) with NCI-H460.

`CC(C)(NO)/C(=N\O)c1ccco1`: the GI50 in the assay with UACC-257, with NCI-H23, in the assay with SNB-19, in the assay on EKVX, in the assay on HCT-116 and with SF-268 was > 100 µM (inactive) each time. In addition, the GI50 in the assay on RXF 393 was > 100 µM (inactive); in the assay with HCT-15, > 100 µM; in the assay with TK-10, > 100 µM (inactive); with NCI/ADR-RES, > 100 µM (inactive); in the assay on DU-145, > 100 µM (inactive); in the assay on IGROV-1 it was > 100 µM (inactive). The GI50 in the assay with OVCAR-3, in the assay with SK-OV-3, with RPMI-8226 and in the assay with NCI-H460 was > 100 µM (inactive) throughout.

Turning to `CCOC(=O)NC(Nc1ncn(C(NC(=O)OCC)(C(F)(F)F)C(F)(F)F)n1)(C(F)(F)F)C(F)(F)F`, the GI50 in the assay on UACC-257, in the assay on NCI-H23, with SNB-19, in the assay with EKVX, with HCT-116 and in the assay on SF-268 was > 100 µM (inactive) each time. The GI50 with RXF 393 is > 100 µM (inactive); in the assay on A498, > 100 µM (inactive); in the assay with HCT-15 it was > 100 µM; with TK-10 it was > 100 µM (inactive); in the assay on NCI/ADR-RES, > 100 µM (inactive); in the assay on DU-145 it was > 100 µM (inactive). The GI50 in the assay with IGROV-1, in the assay on OVCAR-3, in the assay on SK-OV-3, in the assay on RPMI-8226 and in the assay with NCI-H460 was > 100 µM (inactive) each time.

For the compound `CC(=O)NC(CCCCN(Cc1ccccc1)C(=O)NCCCl)C(=O)NCc1ccccc1` (centres undefined), the GI50 with UACC-257, in the assay with NCI-H23, in the assay on SNB-19, with NCI-H522, with EKVX and in the assay on HCT-116 was > 100 µM (inactive) each time. Moreover, the GI50 in the assay with SF-268 is > 100 µM (inactive); in the assay on HCT-15, > 100 µM; in the assay on IGROV-1, > 100 µM (inactive); in the assay on OVCAR-3 it was > 100 µM (inactive); with RPMI-8226 it was > 100 µM (inactive); in the assay on NCI-H460, > 100 µM (inactive).

Regarding `CCOC(=O)C(Cl)(NC(=O)c1ccc(F)cc1)C(F)(F)F` (centres undefined), the GI50 in the assay with UACC-257, in the assay with NCI-H23, in the assay with SNB-19, in the assay with NCI-H522, in the assay on EKVX and in the assay on HCT-116 was > 100 µM (inactive) in each case. In addition, the GI50 was > 100 µM (inactive) in the assay with SF-268; > 100 µM (inactive) in the assay with RXF 393; > 100 µM (inactive) in the assay with A498; > 100 µM in the assay on HCT-15; > 100 µM (inactive) in the assay with TK-10; > 100 µM (inactive) in the assay on NCI/ADR-RES. In addition, the GI50 with DU-145, in the assay on IGROV-1, in the assay on OVCAR-3, in the assay on SK-OV-3, in the assay on RPMI-8226 and with NCI-H460 was > 100 µM (inactive) in each case.

Turning to `O=C(CCCNc1nc(-c2ccccc2)cs1)c1cccs1`, the GI50 in the assay with UACC-257, in the assay on NCI-H23, in the assay with SNB-19, in the assay with NCI-H522, with EKVX and in the assay on HCT-116 was > 100 µM (inactive) each time. The GI50 with SF-268 is > 100 µM (inactive); in the assay with HCT-15 it was > 100 µM; in the assay on BT-549 it was > 100 µM (inactive); in the assay on TK-10, > 100 µM (inactive); with NCI/ADR-RES, > 100 µM (inactive); in the assay on IGROV-1, > 100 µM (inactive). The GI50 with OVCAR-3, with SK-OV-3, with RPMI-8226 and with NCI-H460 was > 100 µM (inactive) in each case.

Take `CCOC(=O)CN1C(=O)c2cccc3cc([N+](=O)[O-])cc(c23)C1=O`: the GI50 in the assay on UACC-257 was 2.51 µM (inactive); in the assay with NCI-H23 it was 2.04 µM (inactive); with SNB-19 it was 18.2 µM (inactive); in the assay on EKVX it was 15.2 µM (inactive); with HCT-116, 1.63 µM (inactive); with SF-268, 3.37 µM (inactive). For the same compound, the GI50 is 1.84 µM (inactive) in the assay with RXF 393; 16.8 µM (inactive) in the assay with A498; 1.65 µM in the assay on HCT-15; 17 µM (inactive) in the assay on TK-10; 3.97 µM (inactive) with IGROV-1; 4.7 µM (inactive) in the assay with OVCAR-3. Besides, the GI50 in the assay with SK-OV-3 is 26.2 µM (inactive); with RPMI-8226 it was 1.81 µM (inactive); with NCI-H460 it was 4.89 µM (inactive).

Consider `COc1cc(C(C[N+](=O)[O-])SC(C)=O)ccc1OCc1ccccc1` (centres undefined), for which the GI50 was 5.02 µM (inactive) in the assay with UACC-257; 4.79 µM (inactive) in the assay on NCI-H23; 8.24 µM (inactive) with SNB-19; 0.345 µM (active) with NCI-H522; 19.8 µM (inactive) in the assay with EKVX; 4.13 µM (inactive) with HCT-116. Also, the GI50 with SF-268 was 6.14 µM (inactive); in the assay on RXF 393, 1.69 µM (inactive); in the assay with A498, 7.57 µM (inactive); in the assay with HCT-15, 3.08 µM; with TK-10, 6.35 µM (inactive); in the assay with NCI/ADR-RES, 12.2 µM (inactive). Moreover, the GI50 was 13.3 µM (inactive) in the assay on DU-145; 2.88 µM (inactive) with IGROV-1; 3.01 µM (inactive) with OVCAR-3; 16.1 µM (inactive) with SK-OV-3; 1.39 µM (inactive) in the assay on RPMI-8226; 8.95 µM (inactive) in the assay on NCI-H460.

For `CN[C@@H](C)[C@H](N)c1ccccc1`, the GI50 with UACC-257, with NCI-H23, with NCI-H522, in the assay on EKVX, in the assay on HCT-116 and with RXF 393 was > 100 µM (inactive) throughout. The GI50 is > 100 µM (inactive) in the assay with A498; > 100 µM in the assay with HCT-15; > 100 µM (inactive) in the assay on TK-10; > 100 µM (inactive) in the assay on IGROV-1; > 100 µM (inactive) in the assay with OVCAR-3; > 100 µM (inactive) in the assay with SK-OV-3. The GI50 with RPMI-8226 and in the assay on NCI-H460 was > 100 µM (inactive) throughout.
